The values that follow come from patent publication US7915050B2, “Regulatory genes for plant differentiation and growth, and use of the same” (National University Corporation Nagoya University, priority 2005, dated 2011).

In this assay the target is T1, AtGID1a (Arabidopsis thaliana, UniProt Q9MAA7).
T1 construct: made in house; host or cells: E. coli
T1 sequence (Q9MAA7 1-345): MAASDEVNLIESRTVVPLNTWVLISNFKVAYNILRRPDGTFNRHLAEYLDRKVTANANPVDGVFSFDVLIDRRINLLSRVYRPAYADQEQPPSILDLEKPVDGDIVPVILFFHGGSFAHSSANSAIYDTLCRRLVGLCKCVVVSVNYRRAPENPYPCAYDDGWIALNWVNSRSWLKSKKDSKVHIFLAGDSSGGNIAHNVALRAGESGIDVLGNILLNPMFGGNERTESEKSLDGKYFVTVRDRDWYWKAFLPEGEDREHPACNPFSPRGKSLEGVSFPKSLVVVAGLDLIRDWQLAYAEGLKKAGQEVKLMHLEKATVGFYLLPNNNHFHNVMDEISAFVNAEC
The experiment in a line: Scatchard analysis of GA binding of AtGID1a. Particulars: equilibrium conditions. The method, then: Panels A) to C) depict the results of Scatchard plot analyses for the GA binding of AtGID1. Results for AtGID1a (A), AtGID1b (B), and AtGID1c (C) are shown. The Kd values for 16,17-dihydro-GA4 was determined by adding various concentrations of GA to the assay mixture. Standard deviation (SD) was determined from these three independent measurements. The insets show time-course characteristics for the GA binding of AtGID1 and replacement (arrow) using an excess amount of non-labeled GA4 (0.125 mM). Panels D) to F) depict the GA binding activities of AtGID1 under different pH conditions. Results for AtGID1a (D), AtGID1b (E), and AtGID1c (F) are shown. The non-specific binding activity (UB) was determined by adding 0.125 mM GA4 to the assay solution, and this was subtracted from the total binding activity (B) to determine the specific binding activity (B-UB).
Specifically, the coding region of the AtGID1 gene was amplified by PCR using specific primers designed based on the full-length cDNA sequence of the AtGID1 gene and having appropriate restriction sites at each end. […]
The kinetics, ligand selectivity, and pH dependence of GA binding for the three AtGID1s identified as described above were examined using the tritiated GA4 derivative 16,17-dihydro-GA4. […] Furthermore, the kinetics of GA binding of each AtGID1 was analyzed under equilibrium conditions of GA at various concentrations.

On to `CC1C[C@]23C[C@H]1CCC2[C@]12CC[C@H](O)[C@](C)(C(=O)O1)[C@H]2[C@@H]3C(=O)O` (stereo partly shown) [H2-GA4, 16,17-dihydro-GA4], for which the dissociation constant Kd stood at 2000 nM.
